What was measured:
Assay type in all cases: cell-based, human
IL-1α = test system: IL-1α
Experimental: (§1) Additionally, the influence on the cell viability and the release of lactate dehydrogenase (LDH) was examined over the incubation time. Disruptions of the cell membranes can be measured by the release of the cytosolic enzyme LDH and be evaluated as a marker for cellular necrosis. As the biocompatibility of the material is determined by further cellular and molecular factors, the analysis of the cellular interleukin release allows the conclusion on e.g. pro-inflammatory effects of the substances, which would not be possible to be detected by sole cytotoxicity. Such interleukins are interleukins 1α, 6 or 8, which are involved in coordinating the cellular proliferation, cell migration and possible inflammatory processes. Such a method is described in, for example, Wiegand C, Hipler UC. Evaluation of biocompatibility and cytotoxicity using keratinocyte and fibroblast cultures. Skin Pharmacol Physiol 2009; 22:74-82; Wiegand C, Winter D, Hipler UC. Molecular-weight-dependent toxic effects of chitosans on the human keratinocyte cell line HaCaT. Skin Pharmacol Physiol. 2010;23(3):164-70.
(§2) The spore suspensions and the solutions of sertaconazol, ciclopiroxolamin and terbinafin were prepared as in Example 1, wherein the respective test concentrations were obtained by diluting these solutions in ultrapure water (WFI; Fresenius Kabi) instead of SGB (Merck). Full skin models were produced as previously described [Reddersen K, Wiegand C, Elsner P, Hipler UC. Three-dimensional human skin model infected with Staphylococcus aureus as a tool for evaluation of bioactivity and biocompatibility of antiseptics. Int J Antimicrob Agents. 2019; 54(3):283-291; Wiegand C, Fink S, Beier O, Horn K, Pfuch A, Schimanski A, Grünler B, Hipler UC, Elsner P. Dose- and Time-Dependent Cellular Effects of Cold Atmospheric Pressure Plasma Evaluated in 3D Skin Models. Skin Pharmacol Physiol. 2016;29(5):257-265].Particularly, normal human dermal fibroblasts (NHDF; Lot 1060702.1, Promocell) and normal human epidermal keratinocytes (NHEK; Lot 9100102, Promocell) were used. Fibroblasts were cultivated in Dulbecco's modified eagle medium (DMEM; Lot MC09049P, Amimed), with 2% foetal calf serum (Lot P160509; PAN), 5 ng/mL hFGF (Lot 0329586; novoprotein) and 5 µg/ml Insulin (Lot H07443P, AMIMED) at 37°C and a 5% CO2 atmosphere. Keratinocytes were cultivated in keratinocyte medium (KBM, Lot 446M063, Promocell) at 37°C and a 5% CO2 atmosphere. The cultivation was performed over 7 days in 75 cm^2 cell culture flasks (Greiner Bio-One). The cells were subsequently detached with Trypsin-EDTA (Lot 2091326; Gibco) and dissolved in the respective medium. For producing the dermis equivalent, fibroblasts were cultivated in 12-well inserts (Greiner bio-one) with DMEM (Lot MC09049P, Amimed) + 10% foetal calf serum (Lot P160509, PAN) + 1% Gentamycin (Lot 2027100, Gibco) + 150 µg/ml ascorbic acid (Lot BCBS1081V, Sigma) for 3 weeks at […] and 5 % CO2. The medium was changed all 2-3 days. Before seeding the keratinocytes for producing the […], the medium surrounding the insert was completely removed and the dermis upper layer was coated with fibronectin (50 µg/mL; Lot 435P078, Promocell). After 30 min of incubation of the dermis equivalent with fibronectin, the seeding of the keratinocytes was performed with 2 × 10^5 cells / insert in KBM (Lot 446M063, Promocell) + 5% FKS (Lot P160509, PAN) + 1% Gentamycin (Lot 2027100, Gibco). Subsequently, the skin models were incubated for 45 min in the incubator before the models were flooded with KBM + 5% FKS + 1% Gentamycin. The skin models were cultivated for 7 days by submersion in the medium with decreasing foetal calf serum concentration (5 %, 2 %, 0 %). The medium was changed all 2-3 days. After the cultivation by submersion, the skin models were further cultivated for 12 days at the air-medium interface (airlift cultivation). […]

IL-6 = test system: IL-6
Experimental: as §1, §2

IL-8 = test system: IL-8
Experimental: as §1, §2

| secretion of IL-1α (IL-1α) | release of IL-6 (IL-6) | release of IL-8 (IL-8) | Structure (SMILES) |
| --- | --- | --- | --- |
| no significant secretion |  |  | Cc1cc(C2CCCCC2)n(O)c(=O)c1 [Ciclopiroxolamin, ciclopiroxolamin] |
|  | does not induce the release | does not induce the release | Clc1ccc(C(Cn2ccnc2)OCc2csc3c(Cl)cccc23)c(Cl)c1 (stereo not shown) [Sertaconazol, sertaconazol] |
| no significant secretion |  |  | CN(C/C=C/C#CC(C)(C)C)Cc1cccc2ccccc12 [Terbinafin, terbinafin] |

Reference: patent publication EP4129284B1, “SERTACONAZOL FOR PROVIDING A SPORISTATIC AND/OR SPORICIDAL EFFECT” (Dr. Pfleger Arzneimittel GmbH, priority 2021, dated 2023)
